From PubChem BioAssay (NCI)
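How tested: cells in 96-well plates exposed to compound for 48 hours at five concentrations. At the TGI there is no net growth.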 Active and inactive are the calls of the source. Cut-off read from the data, not from the text of the source: active = GI50 below about 0.43 µM; inactive = the rest.

Tests used:
Test in all cases: growth of human tumour cells (NCI), 48 h
MDA-MB-231 breast = test system: MDA-MB-231 breast
SF-268 CNS = test system: SF-268 CNS
LOX IMVI melanoma = test system: LOX IMVI melanoma
UACC-257 melanoma = test system: UACC-257 melanoma
SR leukemia = test system: SR leukemia
HCC-2998 colon = test system: HCC-2998 colon
NCI-H226 lung = test system: NCI-H226 lung
PC-3 prostate = test system: PC-3 prostate
A498 renal = test system: A498 renal
U251 CNS = test system: U251 CNS
HCT-15 colon = test system: HCT-15 colon
MDA-N = test system: MDA-N
EKVX NSCLC = test system: EKVX NSCLC
COLO 205 colon = test system: COLO 205 colon
OVCAR-5 ovarian = test system: OVCAR-5 ovarian
CAKI-1 renal = test system: CAKI-1 renal
T-47D breast = test system: T-47D breast
OVCAR-8 ovarian = test system: OVCAR-8 ovarian
SF-539 CNS = test system: SF-539 CNS
A549 NSCLC = test system: A549 NSCLC
CCRF-CEM leukemia = test system: CCRF-CEM leukemia
HT29 colon = test system: HT29 colon
RXF 393 renal = test system: RXF 393 renal
SNB-19 CNS = test system: SNB-19 CNS
MOLT-4 leukemia = test system: MOLT-4 leukemia
NCI-H460 lung = test system: NCI-H460 lung
DU-145 prostate = test system: DU-145 prostate
HS 578T breast = test system: HS 578T breast
UACC-62 melanoma = test system: UACC-62 melanoma
SW-620 colon = test system: SW-620 colon
HCT-116 colon = test system: HCT-116 colon
OVCAR-4 ovarian = test system: OVCAR-4 ovarian
NCI/ADR-RES ovarian = test system: NCI/ADR-RES ovarian
SK-OV-3 ovarian = test system: SK-OV-3 ovarian
SK-MEL-2 melanoma = test system: SK-MEL-2 melanoma
SF-295 CNS = test system: SF-295 CNS
MCF7 breast = test system: MCF7 breast
SNB-75 CNS = test system: SNB-75 CNS
HOP-62 NSCLC = test system: HOP-62 NSCLC
MALME-3M melanoma = test system: MALME-3M melanoma
TK-10 renal = test system: TK-10 renal
MDA-MB-435 = test system: MDA-MB-435
NCI-H23 lung = test system: NCI-H23 lung
SN12C renal = test system: SN12C renal
M14 melanoma = test system: M14 melanoma
UO-31 renal = test system: UO-31 renal
HL-60(TB) leukemia = test system: HL-60(TB) leukemia
BT-549 breast = test system: BT-549 breast
K-562 leukemia = test system: K-562 leukemia
SK-MEL-5 melanoma = test system: SK-MEL-5 melanoma
IGROV1 ovarian = test system: IGROV1 ovarian
HOP-92 NSCLC = test system: HOP-92 NSCLC
SK-MEL-28 melanoma = test system: SK-MEL-28 melanoma
OVCAR-3 ovarian = test system: OVCAR-3 ovarian
KM12 colon = test system: KM12 colon
ACHN renal = test system: ACHN renal
RPMI-8226 leukemia = test system: RPMI-8226 leukemia
786-0 renal = test system: 786-0 renal
NCI-H522 lung = test system: NCI-H522 lung

O=c1cc(-c2ccc(O)c(O)c2-c2c(O)cc(O)c3c(=O)cc(-c4ccc(O)c(O)c4-c4c(O)cc(O)c5c(=O)cc(-c6ccc(O)c(O)c6)oc45)oc23)oc2cc(O)cc(O)c12
outcome (MDA-MB-231 breast): inactive
outcome (SF-268 CNS): inactive
outcome (LOX IMVI melanoma): inactive
outcome (UACC-257 melanoma): inactive
outcome (SR leukemia): inactive
outcome (HCC-2998 colon): inactive
outcome (NCI-H226 lung): inactive
outcome (PC-3 prostate): inactive
outcome (A498 renal): inactive
outcome (U251 CNS): inactive
outcome (HCT-15 colon): inactive
outcome (MDA-N): inactive
outcome (EKVX NSCLC): inactive
outcome (COLO 205 colon): inactive
outcome (OVCAR-5 ovarian): inactive
outcome (CAKI-1 renal): inactive
outcome (T-47D breast): inactive
outcome (OVCAR-8 ovarian): inactive
outcome (SF-539 CNS): inactive
outcome (A549 NSCLC): inactive
outcome (CCRF-CEM leukemia): inactive
outcome (HT29 colon): inactive
outcome (RXF 393 renal): inactive
outcome (SNB-19 CNS): inactive
outcome (MOLT-4 leukemia): inactive
outcome (NCI-H460 lung): inactive
outcome (DU-145 prostate): inactive
outcome (HS 578T breast): inactive
outcome (UACC-62 melanoma): inactive
outcome (SW-620 colon): inactive
outcome (HCT-116 colon): inactive
outcome (OVCAR-4 ovarian): inactive
outcome (NCI/ADR-RES ovarian): inactive
outcome (SK-OV-3 ovarian): inactive
outcome (SK-MEL-2 melanoma): inactive
outcome (SF-295 CNS): inactive
outcome (MCF7 breast): inactive
outcome (SNB-75 CNS): inactive
outcome (HOP-62 NSCLC): inactive
outcome (MALME-3M melanoma): inactive
outcome (TK-10 renal): inactive
outcome (MDA-MB-435): inactive
outcome (NCI-H23 lung): inactive
outcome (SN12C renal): inactive
outcome (M14 melanoma): inactive
outcome (UO-31 renal): inactive
outcome (HL-60(TB) leukemia): inactive
outcome (BT-549 breast): inactive
outcome (K-562 leukemia): inactive
outcome (SK-MEL-5 melanoma): inactive
outcome (IGROV1 ovarian): inactive
outcome (HOP-92 NSCLC): inactive
outcome (SK-MEL-28 melanoma): inactive
outcome (OVCAR-3 ovarian): inactive

O=C1c2ccc3cc(CCl)cc(O)c3c2C(=O)c2cccc(O)c21
TGI (MDA-MB-231 breast): 3.16 µM
TGI (SF-268 CNS): 9.18 µM
TGI (LOX IMVI melanoma): > 10 µM
TGI (UACC-257 melanoma): 3.04 µM
TGI (SR leukemia): > 10 µM
TGI (HCC-2998 colon): > 10 µM
TGI (NCI-H226 lung): > 10 µM
TGI (PC-3 prostate): > 10 µM
TGI (A498 renal): > 10 µM
TGI (U251 CNS): > 10 µM
TGI (HCT-15 colon): > 10 µM
TGI (KM12 colon): > 10 µM
TGI (MDA-N): 0.314 µM
TGI (EKVX NSCLC): > 10 µM
TGI (COLO 205 colon): 4.11 µM
TGI (OVCAR-5 ovarian): > 10 µM
TGI (ACHN renal): 7.4 µM
TGI (CAKI-1 renal): > 10 µM
TGI (T-47D breast): > 10 µM
TGI (OVCAR-8 ovarian): 5.03 µM
TGI (RPMI-8226 leukemia): > 10 µM
TGI (SF-539 CNS): 6.42 µM
TGI (A549 NSCLC): > 10 µM
TGI (786-0 renal): > 10 µM
TGI (CCRF-CEM leukemia): 5.16 µM
TGI (RXF 393 renal): 9.83 µM
TGI (SNB-19 CNS): > 10 µM
TGI (MOLT-4 leukemia): 6.75 µM
TGI (NCI-H460 lung): > 10 µM
TGI (DU-145 prostate): > 10 µM
TGI (HS 578T breast): > 10 µM
TGI (UACC-62 melanoma): 3.85 µM
TGI (SW-620 colon): 1 µM
TGI (HCT-116 colon): 4.18 µM
TGI (OVCAR-4 ovarian): > 10 µM
TGI (NCI/ADR-RES ovarian): 5.67 µM
TGI (SK-OV-3 ovarian): > 10 µM
TGI (SK-MEL-2 melanoma): > 10 µM
TGI (SF-295 CNS): > 10 µM
TGI (MCF7 breast): 2.72 µM
TGI (HOP-62 NSCLC): > 10 µM
TGI (MALME-3M melanoma): 0.0669 µM
TGI (TK-10 renal): > 10 µM
TGI (MDA-MB-435): 0.324 µM
TGI (NCI-H23 lung): > 10 µM
TGI (SN12C renal): 7.26 µM
TGI (NCI-H522 lung): > 10 µM
TGI (M14 melanoma): 2.45 µM
TGI (HL-60(TB) leukemia): 1.61 µM
TGI (BT-549 breast): > 10 µM
TGI (K-562 leukemia): > 10 µM
TGI (SK-MEL-5 melanoma): 1.98 µM
TGI (IGROV1 ovarian): > 10 µM
TGI (HOP-92 NSCLC): > 10 µM
TGI (SK-MEL-28 melanoma): 8.27 µM
TGI (OVCAR-3 ovarian): 0.407 µM
